The structures appear in SMILES notation.

With `Cc1c(Cl)cccc1Nc1cc(-c2ccc(C(F)(F)F)cc2)ncn1` [Example 57], the melting point fell in the range of 148 to 150 °C.

Regarding `CC(C)(C)c1ccc(-c2cc(Nc3ccc4nn[nH]c4c3)ncn2)cc1` [(3H-benzotriazol-5-yl)-[6-(4-tert-butylphenyl)pyrimidin-4-yl]amine], the melting point was in the range of 250 to 252 °C. The result for `CC(C)(C)c1ccc(-c2cc(Nc3ccc4[nH]ccc4c3)nnc2-c2ccccc2)cc1` [[5-(4-tert-Butylphenyl)-6-phenyl-pyridazin-3-yl]-(1H-indol-5-yl)-amine] reads 138 to 140 °C; that for `CC(C)(C)c1ccc(-c2cc(Nc3ccc4c(c3)OCCO4)ncn2)cc1` [[6-(4-tert-Butylphenyl)pyrimidin-4-yl]-(2,3-dihydrobenzo[1,4]dioxin-6-yl)amine], 199 to 202 °C; that for `FC(F)(F)c1ccc(-c2cc(Nc3cnc4ccccc4c3)ncn2)cc1` [Example 50], 262 to 263 °C. `FC(F)(F)c1ccc(-c2cc(Nc3ccccc3)ncn2)cc1` [phenyl-[6-(4-trifluoromethylphenyl)pyrimidin-4-yl]amine] yielded a melting point of 184 to 186 °C. The result for `FC(F)(F)c1ccc(-c2cc(Nc3ccc(Cl)c(Cl)c3)ncn2)cc1` [(3,4-dichlorophenyl)-[6-(4-trifluoromethylphenyl)pyrimidin-4-yl]amine] reads 178 to 180 °C; that for `FC(F)(F)c1ccc(-c2cc(Nc3ccc4ncsc4c3)nnc2Cl)cc1` [Benzothiazol-6-yl-[6-chloro-5-(4-trifluoromethylphenyl)pyridazin-3-yl]amine], 206.3 °C (dec.). The result for `CC(C)(C)c1ccc(-c2cc(Nc3cccc4[nH]ccc34)ncn2)cc1` [Example 46] reads 241 to 242 °C; that for `OCCOc1ccc(Nc2cc(-c3ccc(C(F)(F)F)cc3)ncn2)cn1` [2-{5-[6-(4-Trifluoromethylphenyl)pyrimidin-4-ylamino]pyridin-2-yloxy}ethanol], 189.5 to 190.5 °C.

Values taken from patent US7053088B2, “Vanilloid receptor ligands and their use in treatments” (Amgen Inc., priority 2002, dated 2006).
